Assay results as given in patent US12649732B2, “Polymorphs of (R)-N-(5-(5-isopropyl-1,2,4-oxadiazol-3-yl)-2,3-dihydro-1H-inden-1-yl)-2-methyl-2H-tetrazole-5-carboxamide” (Cytokinetics, Inc., priority 2019, dated 2026).

How the values were obtained:
Assay type in all cases: physicochemical
[1] = Competitive slurry experiments between Form I and Form II
Procedure: Competitive slurry experiments between Form I and Form II in different solvents were conducted. Form I was suspended in the selected solvents at both 50° C. and 5° C. and stirred for a minimum of 1 hour before filtration to create a saturated solution. Form I (ca. 10 mg) and Form II (ca. 10 mg) were combined in a HPLC vial. Each sample was treated with 0.5 ml of the selected saturated solution. The samples were stirred at the selected temperature for 6 days. Solids obtained were filtered and dried under suction for a few minutes prior to characterization. Samples were slightly wet during XRPD analysis.

[2] = Dynamic Vapor Sorption (DVS); conditions: 0-90% RH range, 25° C.
Procedure: DVS data were obtained using a SMS DVS Intrinsic moisture sorption analyzer, controlled by DVS Intrinsic Control software. The sample temperature was maintained at 25° C. by the instrument controls. The humidity was controlled by mixing streams of dry and wet nitrogen, with a total flow rate of 200 ml/min. The relative humidity was measured by a calibrated Rotronic probe (dynamic range of 1.0-100% RH), located near the sample. The weight change, (mass relaxation) of the sample as a function of % RH was constantly monitored by a microbalance (accuracy ±0.005 mg).
Typically, 5-30 mg of sample was placed in a tared mesh stainless steel basket under ambient conditions. The sample was loaded and unloaded at 40% RH and 25° C. (typical room conditions). A moisture sorption isotherm was performed as outlined below (2 scans per complete cycle). The standard isotherm was performed at 25° C. at 10% RH intervals over a 0-90% RH range. Typically, a double cycle (4 scans) was carried out. Data analysis was carried out within Microsoft Excel using the DVS Analysis Suite.

[3] = Polymorph screening (isothermal maturation, liquid assisted grinding, temperature cycling maturation)
Procedure: Polymorphic Form I of (R)—N-(5-(5-isopropyl-1,2,4-oxadiazol-3-yl)-2,3-dihydro-1H-inden-1-yl)-2-methyl-2H-tetrazole-5-carboxamide (ca. 2 g) was suspended in MeCN:H2O (90 vol) and stirred at 50° C. for 40 minutes. The clear solution was filtered and flash frozen in a dry ice/acetone bath and placed for lyophilisation. The solid isolated was analyzed by XRPD and determined to be poorly crystalline Form I.
Poorly crystalline Form I (ca. 15 mg) was dispensed into HPLC vials. Solvent was added (10 vol) and the samples were shaken/stirred at 50° C. After 6 days, suspensions were filtered through a Millipore filter plate and dried under suction for 30 minutes prior to XPRD analysis.
Polymorphic Form I of (R)—N-(5-(5-isopropyl-1,2,4-oxadiazol-3-yl)-2,3-dihydro-1H-inden-1-yl)-2-methyl-2H-tetrazole-5-carboxamide was dispensed into HPLC vials and two stainless steel grinding balls (3 mm diameter) added. Solvent was added (10 μl) and the samples were subjected to grinding on a Fritsch planetary mill (500 rpm, 2 hour duration). Solids obtained post grinding were analyzed by XRPD. As shown below in Table 5, Form I was obtained from all of the experiments.
Polymorphic Form I of (R)—N-(5-(5-isopropyl-1,2,4-oxadiazol-3-yl)-2,3-dihydro-1H-inden-1-yl)-2-methyl-2H-tetrazole-5-carboxamide (20 mg) was dispensed into HPLC vials. The selected solvent was added (5 vol) to each sample then placed for maturation (RT/50° C., cycled with 4 hours at each temperature). After 2 days, the samples were removed from the maturation chamber. Suspensions were filtered through a Millipore plate and dried under suction for 20 minutes prior to XRPD analysis. Solutions obtained were treated with increasing aliquots of anti-solvent until a suspension was obtained or maximum of 5 eq. had been added. Samples were shaken at 25° C. for 30 minutes. Suspensions obtained after shaking were filtered through a Millipore plate and dried under suction for 20 minutes prior to XRPD analysis. Solutions and samples containing a small amount of solid were shaken at 25° C. overnight with any solutions obtained allowed to evaporate at RT. […]

[4] = Stability study: XRPD after storage for 7 days
Procedure: Polymorphic Form I of (R)—N-(5-(5-isopropyl-1,2,4-oxadiazol-3-yl)-2,3-dihydro-1H-inden-1-yl)-2-methyl-2H-tetrazole-5-carboxamide was analyzed by XRPD, DSC, TGA, and DVS. […] As shown in the TGA graph, no weight loss prior to degradation, which starts at about 230° C., was observed. […] Chemical stability study of Form I was also performed. XRPD patterns were measured after storage of samples of Form I for 7 days at 40° C./75% RH and 25° C./97% RH.
Polymorphic Form I of (R)—N-(5-(5-isopropyl-1,2,4-oxadiazol-3-yl)-2,3-dihydro-1H-inden-1-yl)-2-methyl-2H-tetrazole-5-carboxamide (500 mg) was suspended in n-propyl acetate (50 vol) and stirred at 50° C. After 10 minutes, a clear solution was obtained. The solvent was removed under reduced pressure (100 ml round-bottom flask). The solid obtained was analyzed by XRPD and determined as a mixture of Form I and Form II. The solid was suspended in n-propyl acetate (40 vol) and stirred at 50° C. After 10 minutes, a clear solution was obtained. The solvent was removed under reduced pressure in a larger flask (250 ml round-bottom flask). The resulting solid was analyzed by XRPD, DSC, TGA, and GVS and determined as Form II. […] As shown in the DSC graph (sample heated at 10° C./min), an endotherm onset at about 133° C., an exotherm onset at about 135° C., and an endotherm onset at about 152° C. were observed. As shown in the TGA graph, a weight loss of about 1.1% between about 83° C. and about 160° C. prior to degradation was observed. […] Chemical stability study of Form II was also performed. XRPD patterns were measured after storage of samples of Form II for 7 days at 40° C./75% RH and 25° C./97% RH.

Row | XRPD analysis (form after slurry) ([1]; Sample 01, MeCN, 5 °C, 6 days) | XRPD analysis (form after slurry) ([1]; Sample 02, n-propyl acetate, 5 °C, 6 days) | XRPD analysis (form after slurry) ([1]; Sample 03, MEK, 5 °C, 6 days) | XRPD analysis (form after slurry) ([1]; Sample 04, H2O:MeCN (25:75), 5 °C, 6 days) | XRPD analysis (form after slurry) ([1]; Sample 05, H2O:MeCN (75:25), 5 °C, 6 days) | XRPD analysis (form after slurry) ([1]; Sample 06, MeCN, 50 °C, 6 days) | XRPD analysis (form after slurry) ([1]; Sample 07, n-propyl acetate, 50 °C, 6 days) | XRPD analysis (form after slurry) ([1]; Sample 09*, H2O:MeCN (25:75), 50 °C, 6 days, also treated with neat solvent) | XRPD analysis (form after slurry) ([1]; Sample 10, H2O:MeCN (75:25), 50 °C, 6 days) | XRPD analysis (form after slurry) ([1]; Sample 11, MEK, 50 °C, 6 days (repeat of 08)) | XRPD analysis (form after slurry) ([1]; Sample 12, H2O:MeCN (25:75), 50 °C, 6 days (repeat of 09)) | moisture uptake as determined by DVS [2] [% w/w] | relative stability of form ([3]; isothermal maturation, 50° C., 6 days, various solvents) | relative stability of form ([3]; liquid assisted grinding, 500 rpm, 2 hour, various solvents) | relative stability of form ([3]; temperature cycling maturation RT/50° C., 2 days, and anti-solvent screen) | changes in XRPD patterns after storage ([4]; 7 days at 25° C./97% RH) | changes in XRPD patterns after storage ([4]; 7 days at 40° C./75% RH) | SMILES
1 | Form 1 | Form 1 | Form 1 | Form 1 | Form 1 | Form I | Form I | Form I | Form I | Form I | Form I | – | – | – | – | – | – | CC(C)c1nc(-c2ccc3c(c2)CC[C@H]3NC(=O)c2nnn(C)n2)no1 [Form I and Form II, (R)—N-(5-(5-isopropyl-1,2,4-oxadiazol-3-yl)-2,3-dihydro-1H-inden-1-yl)-2-methyl-2H-tetrazole-5-carboxamide]
2 | – | – | – | – | – | – | – | – | – | – | – | 0.36 | most stable form | most stable form | most stable form | No significant changes | No significant changes | CC(C)c1nc(-c2ccc3c(c2)CC[C@H]3NC(=O)c2nnn(C)n2)no1 [Form I, (R)—N-(5-(5-isopropyl-1,2,4-oxadiazol-3-yl)-2,3-dihydro-1H-inden-1-yl)-2-methyl-2H-tetrazole-5-carboxamide]
3 | – | – | – | – | – | – | – | – | – | – | – | 0.24 | – | – | – | No significant changes | No significant changes | CC(C)c1nc(-c2ccc3c(c2)CC[C@H]3NC(=O)c2nnn(C)n2)no1 [Form II, (R)—N-(5-(5-isopropyl-1,2,4-oxadiazol-3-yl)-2,3-dihydro-1H-inden-1-yl)-2-methyl-2H-tetrazole-5-carboxamide]
